Measured values as given in patent publication EP4678638A1, “NEW E3 UBIQUITIN LIGASE LIGAND, PROTEIN DEGRADATION AGENT AND USE THEREOF” (priority 2023, dated 2024).

biological target: T1, IRAK4 (Homo sapiens, UniProt Q9NWZ3); experiment: Western blot degradation of IRAK4 (hPBMC); assay type: cell-based; details: Table D1
T1 construct: evaluate the effects of the compounds of the present disclosure on the expression of target proteins in cells; endogenous in cells; host or cells: hPBMC
T1 sequence (Q9NWZ3 1-460): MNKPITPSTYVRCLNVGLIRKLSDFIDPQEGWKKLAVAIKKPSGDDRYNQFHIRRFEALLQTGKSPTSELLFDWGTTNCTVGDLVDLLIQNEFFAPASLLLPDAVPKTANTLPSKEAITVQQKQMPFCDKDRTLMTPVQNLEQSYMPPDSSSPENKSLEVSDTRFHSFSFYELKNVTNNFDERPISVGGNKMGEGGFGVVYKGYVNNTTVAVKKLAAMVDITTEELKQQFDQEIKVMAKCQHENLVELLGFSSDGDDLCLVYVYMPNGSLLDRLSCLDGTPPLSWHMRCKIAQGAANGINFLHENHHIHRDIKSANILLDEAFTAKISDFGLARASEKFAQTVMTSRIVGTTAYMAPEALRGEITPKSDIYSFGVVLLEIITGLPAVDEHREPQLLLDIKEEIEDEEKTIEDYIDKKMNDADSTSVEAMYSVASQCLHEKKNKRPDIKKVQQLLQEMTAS
Experimental: Conventional Western blot assay was performed to evaluate the effects of the compounds of the present disclosure on the expression of target proteins in cells.
(1) Cell Seeding and Protein Harvesting: The selected cells were processed according to the cell seeding procedure and protein harvesting procedure in Table III-2. Table III-2 Cell Seeding and Protein Harvesting Procedures
(2) To the collected supernatant, 5X SDS sample loading buffer was added, followed by denaturation at 95°C for 5 minutes. The denatured samples were then separated by SDS-PAGE electrophoresis on a polyacrylamide gel. Proteins were transferred to a nitrocellulose membrane (0.45 µm NC membrane), blocked with blocking buffer at room temperature for 1 hour, and subjected to antibody incubation and development procedures according to the antibody manufacturer's instructions (Cell Signaling Technology).
Half-Maximal Degradation Concentration value (the drug concentration required for degrading proteins by 50%, abbreviated as DC50) reads method: comparing the grayscale values of Western blot bands from drug-treated samples with those from blank DMSO-treated controls, and identifying the drug concentration range at which the grayscale value is half that of the DMSO-treated control bands.
DC50 values can be calculated using ImageJ software to measure grayscale values of Western blot bands from drug-treated samples. The concentration-response curve is fitted to estimate the drug concentration corresponding to half the grayscale value.
Target protein remaining (%) refers to the percentage of target protein remaining in hPBMC cells after treatment with protein degrader compounds.
Calculation method for target protein remaining (%): Use ImageJ software to measure grayscale values of Western blot bands from drug (protein degrader)-treated samples. The grayscale value of drug-treated bands is divided by that of internal control protein bands, and the resulting quotient is normalized to obtain the relative percentage of remaining target protein after protein degrader treatment.
Target protein degradation rate (%) = 100% - target protein remaining (%).

SMILES	Degradation of substrate protein IRAK4 (substrate protein remaining %)
COc1cc2nn(C3CCN(Cc4cccc(NC5CCC(=O)NC5=O)c4)CC3)cc2cc1NC(=O)c1cccc(C(F)(F)F)c1 (centres unmarked) [GT-04749, N-(2-(1-(3-((2,6-dioxopiperidin-3-yl)amino)benzyl)piperidin-4-yl)-6-methoxy-2H-indazol-5-yl)-3-(trifluoromethyl)benzamide]	A (A is defined as 0% ≤ substrate protein remaining % ≤ 80%)
COc1cc2nn(C3CCN(Cc4ccc(N5CCC(=O)NC5=O)cc4F)CC3)cc2cc1NC(=O)c1cccc(C(F)(F)F)c1 [GT-04753, N-(2-(1-(4-(2,4-dioxotetrahydropyrimidin-1(2H)-yl)-2-fluorobenzyl)piperidin-4-yl)-6-methoxy-2H-indazol-5-yl)-3-(trifluoromethyl)benzamide]	A (A is defined as 0% ≤ substrate protein remaining % ≤ 80%)
O=C1CCN(c2cccc(CN3CCC(n4cc(NC(=O)c5coc(-c6ccnc(NCC(F)(F)F)c6)n5)c(C(F)F)n4)CC3)c2)C(=O)N1 [GT-05190, N-(3-(difluoromethyl)-1-(1-(3-(2,4-dioxotetrahydropyrimidin-1(2H)-yl)benzyl)piperidin-4-yl)-1H-pyrazol-4-yl)-2-(2-((2,2,2-trifluoroethyl)amino)pyridin-4-yl)oxazole-4-carboxamide]	A (A is defined as 0% ≤ substrate protein remaining % ≤ 80%)
COc1cc2nn(C3CCN(Cc4ccnc(N5CCC(=O)NC5=O)c4)CC3)cc2cc1NC(=O)c1cccc(C(F)(F)F)n1 [GT-07532, N-(2-(1-((2-(2,4-dioxotetrahydropyrimidin-1(2H)-yl)pyridin-4-yl)methyl)piperidin-4-yl)-6-methoxy-2H-indazol-5-yl)-6-(trifluoromethyl)picolinamide]	A (A is defined as 0% ≤ substrate protein remaining % ≤ 80%)
CC(C)Nc1cc(-n2ccc3cc(C#N)cnc32)ncc1C(=O)NC1CCN(Cc2cc(N3CCC(=O)NC3=O)ncc2F)CC1 [GT-07408, 6-(5-cyano-1H-pyrrolo[2,3-b]pyridin-1-yl)-N-(1-((2-(2,4-dioxotetrahydropyrimidin-1(2H)-yl)-5-fluoropyridin-4-yl)methyl)piperidin-4-yl)-4-(isopropylamino)nicotinamide]	A (A is defined as 0% ≤ substrate protein remaining % ≤ 80%)
O=C1CCC(Nc2cccc(CN3CCN(c4ccc5c(c4)nc(NC(=O)c4cccc(C(F)(F)F)c4)n5[C@H]4CC[C@@H](CO)CC4)CC3)c2)C(=O)N1 (some centres unmarked) [GT-04985, N-(5-(4-(3-((2,6-dioxopiperidin-3-yl)amino)benzyl)piperazin-1-yl)-1-((1s,4s)-4-(hydroxymethyl)cyclohexyl) -1H-benzo[d]imidazol-2-yl)-3-(trifluoromethyl)benzamide]	A (A is defined as 0% ≤ substrate protein remaining % ≤ 80%)
CC(C)(O)c1cc2nc(C3CCN(Cc4cccnc4C4CCC(=O)NC4=O)CC3)sc2cc1NC(=O)c1cccc(C(F)(F)F)n1 (centres unmarked) [GT-07625, N-(2-(1-((2-(2,6-dioxopiperidin-3-yl)pyridin-3-yl)methyl)piperidin-4-yl)-5-(2-hydroxypropan-2-yl)benzo[d]thiazol-6-yl)-6-(trifluoromethyl)picolinamide]	A (A is defined as 0% ≤ substrate protein remaining % ≤ 80%)
COc1cc2nn(C3CCN(Cc4cccc(N5CCC(=O)NC5=O)c4)CC3)cc2cc1NC(=O)c1cccc(C(F)(F)F)n1 [GT-04774, N-(2-(1-(3-(2,4-dioxotetrahydropyrimidin-1(2H)-yl)benzyl)piperidin-4-yl)-6-methoxy-2H-indazol-5-yl)-6-(trifluoromethyl)picolinamide]	A (A is defined as 0% ≤ substrate protein remaining % ≤ 80%)
COc1cc2nn(C3CCN(Cc4cncc(N5CCC(=O)NC5=O)c4)CC3)cc2cc1NC(=O)c1cccc(C(F)(F)F)c1 [GT-07416, N-(2-(1-((5-(2,4-dioxotetrahydropyrimidin-1(2H)-yl)pyridin-3-yl)methyl)piperidin-4-yl)-6-methoxy-2H-indazol-5-yl)-3-(trifluoromethyl)benzamide]	A (A is defined as 0% ≤ substrate protein remaining % ≤ 80%)
CC(C)Nc1cc(-n2ccc3cc(C#N)cnc32)ncc1C(=O)NC1CCN(Cc2ccnc(N3CCC(=O)NC3=O)c2)CC1 [GT-07409, 6-(5-cyano-1H-pyrrolo[2,3-b]pyridin-1-yl)-N-(1-((2-(2,4-dioxotetrahydropyrimidin-1(2H)-yl)pyridin-4-yl)methyl)piperidin-4-yl)-4-(isopropylamino)nicotinamide]	A (A is defined as 0% ≤ substrate protein remaining % ≤ 80%)
CC(C)(O)c1cc2nc(C3CCN(Cc4ccnc(C5CCC(=O)NC5=O)c4)CC3)sc2cc1NC(=O)c1cccc(C(F)(F)F)n1 (centres unmarked) [GT-07622, N-(2-(1-((2-(2,6-dioxopiperidin-3-yl)pyridin-4-yl)methyl)piperidin-4-yl)-5-(2-hydroxypropan-2-yl)benzo[d]thiazol-6-yl)-6-(trifluoromethyl)picolinamide]	A (A is defined as 0% ≤ substrate protein remaining % ≤ 80%)
COc1cc2nn(C3CCN(Cc4cccc(NC5CCC(=O)NC5=O)c4)CC3)cc2cc1NC(=O)c1cccc(C(F)(F)F)n1 (centres unmarked) [GT-04763, N-(2-(1-(3-((2,6-dioxopiperidin-3-yl)amino)benzyl)piperidin-4-yl)-6-methoxy-2H-indazol-5-yl)-6-(trifluoromethyl)picolinamide]	A (A is defined as 0% ≤ substrate protein remaining % ≤ 80%)
CC(C)Nc1cc(-n2ccc3cc(C#N)cnc32)ncc1C(=O)NC1CCN(Cc2ccc(C3CCC(=O)NC3=O)cn2)CC1 (centres unmarked) [GT-07411, 6-(5-cyano-1H-pyrrolo[2,3-b]pyridin-1-yl)-N-(1-((5-(2,6-dioxopiperidin-3-yl)pyridin-2-yl)methyl)piperidin-4-yl)-4-(isopropylamino)nicotinamide]	A (A is defined as 0% ≤ substrate protein remaining % ≤ 80%)
COc1cc2nn(C3CCN(Cc4ccc(N5CCC(=O)NC5=O)cc4)CC3)cc2cc1NC(=O)c1cccc(C(F)(F)F)c1 [GT-04752, N-(2-(1-(4-(2,4-dioxotetrahydropyrimidin-1(2H)-yl)benzyl)piperidin-4-yl)-6-methoxy-2H-indazol-5-yl)-3-(trifluoromethyl)benzamide]	A (A is defined as 0% ≤ substrate protein remaining % ≤ 80%)
COc1cc2nn(C3CCN(Cc4cccc(N5CCC(=O)NC5=O)c4)CC3)cc2cc1NC(=O)c1cccc(C(F)(F)F)c1 [GT-04750, N-(2-(1-(3-(2,4-dioxotetrahydropyrimidin-1(2H)-yl)benzyl)piperidin-4-yl)-6-methoxy-2H-indazol-5-yl)-3-(trifluoromethyl)benzamide]	A (A is defined as 0% ≤ substrate protein remaining % ≤ 80%)
COc1cc2nn(C3CCN(Cc4cc(N5CCC(=O)NC5=O)ncc4F)CC3)cc2cc1NC(=O)c1cccc(C(F)(F)F)c1 [GT-07414, N-(2-(1-((2-(2,4-dioxotetrahydropyrimidin-1(2H)-yl)-5-fluoropyridin-4-yl)methyl)piperidin-4-yl)-6-methoxy-2H-indazol-5-yl)-3-(trifluoromethyl)benzamide]	A (A is defined as 0% ≤ substrate protein remaining % ≤ 80%)
CC(C)Nc1cc(-n2ccc3cc(C#N)cnc32)ncc1C(=O)NC1CCN(Cc2ccnc(C3CCC(=O)NC3=O)c2)CC1 (centres unmarked) [GT-07412, 6-(5-cyano-1H-pyrrolo[2,3-b]pyridin-1-yl)-N-(1-((2-(2,6-dioxopiperidin-3-yl)pyridin-4-yl)methyl)piperidin-4-yl)-4-(isopropylamino)nicotinamide]	A (A is defined as 0% ≤ substrate protein remaining % ≤ 80%)
